Measurements as given in PubChem BioAssay AID2418 (NMMLSC, 2010).
Active and inactive are the calls of the source.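 Rule for the calls: active = compounds reducing bradykinin-triggered filopodia by more than 10% inhibition at 10 microM; inactive = the rest.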

System: Swiss 3T3 bradykinin-induced filopodia, phalloidin imaging
Assay: inhibition of bradykinin-induced filopodia formation, orthogonal assay for Ras-related GTPase inhibitor project, imaging, 3T3 cells, bradykinin stimulation (AID 2418)
Conditions: at 10 µM; active compounds read high

Question: How did the inhibition turn out when `Cc1ccc(C2CC(c3ccccc3)=NN2c2ccc(S(N)(=O)=O)cc2)cc1` (stereo not drawn) was run?
Answer: The inhibition was -11% (inactive).

Question: For `COc1ccc(C2CC(c3ccccc3)=NN2c2ccc(S(N)(=O)=O)cc2)cc1` (stereo not drawn), which inhibition is on record?
Answer: The inhibition was 56%.

Question: For `Cc1cccc(C2CC(c3ccccc3)=NN2c2ccc(S(N)(=O)=O)cc2)c1` (stereo not drawn), which inhibition is on record?
Answer: The inhibition was 19%.
